Experimental data: patent US11401516B2, “Channel modulators” (AUCKLAND UNISERVICES LIMITED, priority 2014, dated 2022)

Test system: hCMVEC cells
Assay: MTT assay for cell viability
Assay type: cell-based, human
Settings: 200 μM, 24-hour treatment
Protocol: Stock MTT was prepared by dissolving 5 mg in 1 mL PBS producing a concentration of 5 mg/mL. After the treatment incubation period of cells seeded in a 96 well-plate (at 1×10^4 cells/well) the media was removed and replaced with 100 μL of PBS. 10 μL of MTT stock solution was added to each well, except for those that were used as a blank, and left to incubate at 37° C. for 4 hours at which time the solutions was aspirated from each well. Then 50 μL DMSO (Sigma) was added to each well to dissolve the crystalline product. Viability was determined by measuring the absorbance of the purple crystal produced. This was measured by reading the absorbance at 595 nm in a plate reader; the data was standardized to each control as an internal standard. Statistically was investigated using One-way ANOVA and Tukey's post hoc test where *p<0.05.

## CC(=O)c1ccc2c(c1)[C@H](NC(=O)c1ccc(F)c(Cl)c1)[C@H](O)C(C)(C)O2 [Tonabersat, N-[(3S,4S)-6-acetyl-3-hydroxy-2,2-dimethyl-3,4-dihydrochromen-4-yl]-3-chloro-4-fluorobenzamide]
  cell viability: did not significantly reduce cell viability
